In patent US8119339B2, “Heteroduplex tracking assay” (priority 2000, dated 2012):
Where “and” joins values, the source holds several entries; their conditions need not be identical. Equal values may be shown once.

What was measured:
[1] = test system: GHOST.CCR5 and GHOST.CXCR4 indicator cells (R5-tat, X4-tat); assay: Rapid Cell Fusion Assay for coreceptor utilization (CAT-ELISA); assay type: cell-based; conditions: cloned patient env gene expressed on HL3T1 cells, fusion for 48 hours
From the text: Viral coreceptor usage was separately evaluated through the use of a Rapid Cell Fusion Assay. This assay enables determination of coreceptor usage from cloned HIV env gene sequences obtained directly from patient samples (e.g. blood, mucosal tissue). This method allows for greater efficiency in determination of viral coreceptor usage, by circumventing the need for cultivation of primary isolates. The Rapid Cell Fusion Assay can advantageously produce a result within one week after obtaining a patient sample. In addition, the Rapid Cell Fusion Assay allows study of patient-derived virus obtained from sites other than the peripheral blood, particularly those sites from which cultured virus cannot be obtained. For example, while circulating macrophages and CD4^+ T cells are the dominant reservoir of HIV-1, viral populations distinct from those in the peripheral blood exist in many reservoirs, including the genital tract.
The HL3T1 cell line was derived by stable transfection of parental HeLa cells with a chloramphenicol acetyltransferse (CAT) reporter construct containing a CAT gene is linked to an HIV-1 LTR promoter. The HL3T1 cells produce CAT protein only upon introduction of an active HIV-1 Tat protein. HL3T1 cells were transfected with a cloned env gene derived from a patient of interest. The cloned env gene product is expressed on the surface of the HL3T1 cells.
Indicator cell lines GHOST.CCR5 and GHOST.CXCR4 (respectively hereinafter “R5-tat” and “X4-tat”) cells were transfected with pSV2tat72, a construct expressing high levels of HIV-1 Tat under the control of the SV40 early promoter.
HL3T1 cells containing a cloned patient env gene were fused to R5-tat and X4-tat cells. Cell surface envelope protein variants will selectively interact with either CCR5 or CXCR4. Fusion only occurs when an HL3T1 envelope protein interacts with an indicator cell expressing a compatible coreceptor. Therefore, HL3T1 cells will fuse with either R5-tat and X4-tat, depending on the patient's env gene specificity. To initiate fusion, transfected HL3T1 and R5-tat or X4-tat cells were mixed in 6-well plates at 37° C. and allowed to fuse for 48 hours. To quantitate fusion, the cells were lysed with 0.5% NP-40. Fusion of HL3T1 cells to R5-tat or X4-tat activated CAT gene expression. Aliquots of the cell lysates were monitored for CAT production using a commercially available kit (CAT-ELISA, Boehringer Mannheim).
Twenty-five clones from each sample were analyzed to ensure that the fusion assay reflected the heterogeneous nature of HIV-1 populations.

[2] = test system: CD4+ cells; assay: CD4+ cell count in women before and after antiretroviral therapy; assay type: in vivo, human; conditions: Status before combination therapy, single patient, on the listed anti-HIV therapy
Method: (§1) Coreceptor use was examined in twenty-two women who participated in two prospective studies of HIV-1 infection. Nineteen were enrolled in the Bronx-Manhattan site of Women's Interagency HIV Study (WIHS), a National Institutes of Health (NIH) multicenter study of the natural history of HIV-1 infection in women. Three took part in a study of HIV-1 pathogenesis performed at the Wadsworth Center of the New York State Department of Health in Albany, N.Y. Both studies included individuals with a broad spectrum of HIV-1 disease. The institutional review boards at each clinical site and the New York State Department of Health approved the investigation. Each woman provided informed consent at enrollment.
(§2) To examine the effect of combination antiretroviral therapy on HIV-1 coreceptor use, women infected with CXCR4 strains were sought.
(§3) At that time, eight women were receiving antiretroviral therapy, primarily zidovudine monotherapy. While under study, however, 12 initiated new combination regimens; 9 received HAART (Group I) and 3 received two or more nucleoside analogues (Group II). […] In Table 1, “Before therapy” refers to data obtained at the visit immediately preceding initiation of new two or three drug antiretroviral therapy in Groups I & II. For Group III, data from the first time point are shown (a). “Follow-up” refers to data obtained at the first time point following the initiation of the anti-HIV therapy listed for Groups I & II.

[3] = test system: HIV-1 strains using CCR5 versus CXCR4; assay: QXR, proportion of patient HIV-1 using CCR5; assay type: in vivo, human; conditions: Status before combination therapy, single patient, on the listed anti-HIV therapy
Method: To quantitate HIV-1 coreceptor use, inventors constructed a variable, λ, as the proportion of strains using CCR5. This variable has since been renamed QXR. […] QXR values were assessed by utilizing qualitative assay data derived from primary isolates, biologic clones, and sequences of the V3 portion of the env gene. […] Thus, for the vast majority of virions, each virion uses either CCR5 or CXCR4. This relationship can be stated as a mixture
D=QXR(CCR5)+(1−QXR)(CXCR4); 0≦QXR≦1, where D is the distribution of viral phenotypes. By design, it is a binomial population.
QXR values were constructed by relating data derived from the same patient sample by using three different analyses: biologic cloning, V3 sequencing of patient-derived molecular clones, and qualitative assays of primary isolates. To construct QXR values, inventors first calculated the proportion of biologic and, if available, molecular clones using CCR5 at each time point, then linked the proportion to the qualitative coreceptor use score (− to 3+) of primary isolates obtained simultaneously. Data that were not available were interpolated. […]
The large number of biologic and molecular clones permitted derivation of a system to quantitate the proportion of virus in a clinical specimen that uses each coreceptor. […] By applying this method, it was determined the proportion of virus using each coreceptor for each patient over time. […]

[4] = test system: HIV-1; conditions: Status before combination therapy, single patient, on the listed anti-HIV therapy
Method: as §1, §2
Once the study population was selected, blood was drawn and separated into plasma and cell components (Anastos et al. (2000) J. AIDS Hum. Retro. (in press); Fang et al. (1995)). HIV-1 RNA in plasma was quantitated by using NucliSens (Organon Teknika Corp., Durham, N.C.), with a lower limit of quantitation of ˜80 copies/ml. The CCR5 genotype of each patient was determined as described (Samson et al. (1996)).
as §3

[5] = test system: V3 region of the env gene; assay: Coreceptor use predicted from V3 loop sequences of plasma HIV-1 RNA molecular clones; conditions: number of molecular clones of virion-derived plasma HIV-1 RNA
From the text: HIV-1 virions were isolated from plasma samples as described (Fang et al. (1996) J. AIDS Hum. Retro. 12:352-7). Reverse transcriptase polymerase chain reaction amplification produced a 920-bp amplicon spanning the V3 region of the env gene. Reaction conditions were controlled rigorously to minimize recombination and other artifacts (Fang et al. (1996)). Amplified products were cloned into a TOPO™ TA vector (Invitrogen, Carlsbad, Calif.), verified by restriction digestion, and sequenced. Alignment of the sequences was initially done using the PILEUP program in the GCG Suite (Genetics Computer Group, Madison, Wis.), then checked manually. Envelope sequences were used to predict coreceptor use on the basis of the overall charge of the V3 loop and the presence of basic or acidic residues at positions […] (Bhattacharyya et al. (1996); and Hung et al. (1999)).
These sequences predicted a pattern of coreceptor use that essentially paralleled the one obtained by using viral culture (Table 2B, Coreceptor use determined by cocultivation of PBMCs vs. sequence analysis of plasma HIV-1 RNA). […] At each time point, coreceptor use was assayed by co-cultivating PBMCs and determining the V3 loop sequence of virion-derived HIV-1 RNA.

| Molecule | CORECEPTOR [1] | other results |
| --- | --- | --- |
| CTRPNDNIRKSVHIGPGQAFYATGDIIGDIRRAHC [AF10P97-2] | CCR5 | – |
| Cc1cn([C@H]2C=C[C@@H](CO)O2)c(=O)[nH]c1=O [d4T, stavudine] | – | CD4+ count, cells per mm3 [2]: 9 cells per mm3; QXR, proportion of HIV-1 Using R5 [3]: 0.36; HIV-1 RNA, log copies per ml [4]: 5.28 log copies per ml |
| CTRPSNNRRKSIHMGPGQAFYGT.DDIIGDIRKARC [AF6P-12] | CCR5 | – |
| CIRPNNNTRTSIRIGPRQAFYATGNIIGDIRQAYC [AF2P12-10] | CXCR4 | – |
| CTRPNNNTRKSVHIGLGQAFYATGDIIGNIRKAHC [AF3P-9] | CCR5 | – |
| ........RKSVHIGPGQAFYATGDIIGNIRKAHC [AF3P-2] | negative | – |
| CTRPNNNTITSIRIGPGQAFYATGSIIGNIRQAHC [AF9P2-3] | CCR5 | – |
| CTRPNNNTRKSVHIGPGQAFYATGDIIGNMRKAHC [AF3P-12] | CCR5 | – |
| CTRPNNNTKKSVHIGPGQAFYATGDIIGDIRQAYC [AF5P-6] | CCR5 | – |
| CTRPSNNRRKSIHKGDQDKHSMEHDDVIGDIRKARC [AF6P-7] | negative | – |
| CTRPNNNTRKSVHIGPGQAFYATGDIIGNIRKAHC [AF3P-4] | CCR5 | – |
| CIRPNNNTRTSIRIGPGQAFYATGNIVGDIRQAYC [AF2P12-11] | CCR5 | – |
| CIRPNNNTRQSVHIGPGQALYTTEIIGDIRKAHC [AF7P-9] | CCR5 | – |
| CTRPNNNTRKSVHIGPGQAFYATGDIIGNIRQAHC [AF3P-6] | CCR5 | – |
| Cc1cn([C@H]2C[C@H](N=[N+]=[N-])[C@@H](CO)O2)c(=O)[nH]c1=O [AZT, zidovudine] | – | CD4+ count, cells per mm3 [2]: 188 cells per mm3 and 42 cells per mm3 and 259 cells per mm3 and 307 cells per mm3 and 43 cells per mm3; QXR, proportion of HIV-1 Using R5 [3]: 0.36 (2×) and 0.90 and 0.00 (2×); Distribution of Co-Receptor Use Predicted by V3 Loop Sequences, CCR5 [5]: 9; Distribution of Co-Receptor Use Predicted by V3 Loop Sequences, CXCR4 [5]: 4; HIV-1 RNA, log copies per ml [4]: 5.30 log copies per ml and 4.94 log copies per ml and 5.58 log copies per ml and 5.04 log copies per ml and 5.23 log copies per ml |
| CTRPSNNRRKSIHMGPGQAFYGT.DDIIGGIRKARC [AF6P-11] | CCR5 | – |
| CTRPNNNTITSIRIGPGQAFYATGSIIGNTRQAHC [AF9P2-4] | CCR5 | – |
| CTRPNNNTRKSVHIGPGQAFYATGDIIGDIRQAYC [AF5P-5] | CCR5 | – |
| CIRPNNNTRTSIRIGPGQAFYATGNIIGDIRQAYC [AF2P12-12] | CCR5 | – |
| CIRPNNNTRTSIRIGPGQAFYATGNIIGGIRQAYC [AF2P12-2] | CCR5 | – |
| CTRPINNRRKSIHMGPGQAFYGT.DDIIGDIRKARC [AF6P-1] | CCR5 | – |
| CTRPINNRRKSIHIGPGQAFYGT.DDIIGDIRQAHC [AF6P-10] | CCR5 | – |
| CTRPNDNIRKRVHIGPGQAFYATGDVIGDIRRAHC [AF10P97-4] | CXCR4 | – |
| CTRPNNNTRKSVHIGPGQAFYATGDILGNIRQAHC [AF3P-11] | CCR5 | – |
